Converted amounts (≈) assume the structure as drawn. The source made the active and inactive calls. The rule behind the calls is not given here.
Experiments:
[1] = test system: Staphylococcus aureus; assay: Antibacterial activity against methicillin-resistant Staphylococcus aureus N315 after 24 hrs by micro broth dilution method; assay type: functional; details: N315, 24 h
[2] = test system: Staphylococcus aureus; assay: Antibacterial activity against drug-resistant Staphylococcus aureus after 24 hrs by micro broth dilution method; assay type: functional
[3] = test system: Staphylococcus aureus; assay: Antibacterial activity against Staphylococcus aureus ATCC 25923 after 24 hrs by micro broth dilution method; assay type: functional; details: ATCC 25923, 24 h
[4] = test system: Staphylococcus aureus; assay: Antibacterial activity against Staphylococcus aureus ATCC 29213 after 24 hrs by micro broth dilution method; assay type: functional; details: ATCC 29213, 24 h
[5] = test system: Escherichia coli; assay: Antibacterial activity against drug-resistant Escherichia coli after 24 hrs by micro broth dilution method; assay type: functional
[6] = test system: Escherichia coli; assay: Antibacterial activity against Escherichia coli ATCC 25922 after 24 hrs by micro broth dilution method; assay type: functional; details: ATCC 25922, 24 h
[7] = test system: Pseudomonas aeruginosa; assay: Antibacterial activity against drug-resistant Pseudomonas aeruginosa after 24 hrs by micro broth dilution method; assay type: functional
[8] = test system: Pseudomonas aeruginosa; assay: Antibacterial activity against Pseudomonas aeruginosa ATCC 27853 after 24 hrs by micro broth dilution method; assay type: functional; details: ATCC 27853, 24 h
[9] = test system: Candida albicans; assay: Antifungal activity against drug-resistant Candida albicans after 24 hrs by micro broth dilution method; assay type: functional
[10] = test system: Candida albicans; assay: Antifungal activity against Candida albicans ATCC 90023 after 24 hrs by micro broth dilution method; assay type: functional; details: ATCC 90023, 24 h
[11] = test system: Candida tropicalis; assay: Antifungal activity against Candida tropicalis after 24 hrs by micro broth dilution method; assay type: functional
[12] = test system: Pseudomonas aeruginosa; assay: Bactericidal activity against drug sensitive Pseudomonas aeruginosa assessed as bacterial load at 4 times MIC after 120 mins by time-kill assay (reference value: 9.3 10^5 CFU/ml); assay type: functional
[13] = test system: Pseudomonas aeruginosa; assay: Bactericidal activity against drug sensitive Pseudomonas aeruginosa assessed as bacterial load at 4 times MIC after 150 mins by time-kill assay (reference value: 4.3 10^6 CFU/ml); assay type: functional
[14] = test system: Pseudomonas aeruginosa; assay: Bactericidal activity against drug sensitive Pseudomonas aeruginosa assessed as bacterial load at 4 times MIC after 180 mins by time-kill assay (reference value: 3.5 10^7 CFU/ml); assay type: functional
[15] = test system: Pseudomonas aeruginosa; assay: Bactericidal activity against drug sensitive Pseudomonas aeruginosa assessed as bacterial load at 4 times MIC after 210 mins by time-kill assay (reference value: 3.2 10^9 CFU/ml); assay type: functional
[16] = test system: Pseudomonas aeruginosa; assay: Bactericidal activity against drug sensitive Pseudomonas aeruginosa assessed as bacterial load at 4 times MIC after 240 mins by time-kill assay (reference value: 1.1 10^10 CFU/ml); assay type: functional
[17] = test system: Pseudomonas aeruginosa; assay: Bactericidal activity against drug sensitive Pseudomonas aeruginosa assessed as bacterial load at 4 times MIC after 270 mins by time-kill assay (reference value: 1.8 10^10 CFU/ml); assay type: functional
[18] = test system: DNA; assay: Binding affinity to sensitive Pseudomonas aeruginosa DNA assessed as hypochromic effect at 3.81 x 10^-6mol/L by neutral red dye based UV-vis spectroscopic method; assay type: nucleic-acid assay
[19] = test system: DNA; assay: Induction of sensitive Pseudomonas aeruginosa DNA cleavage at 75 uM by ethidium bromide staining-based agarose gel electrophoresis; assay type: nucleic-acid assay
[20] = test system: Pseudomonas aeruginosa; assay: Bactericidal activity against drug sensitive Pseudomonas aeruginosa assessed as log reduction in bacterial load at 4 times MIC after 120 mins by time-kill assay; assay type: functional
[21] = molecular target: T1, Albumin (Homo sapiens, UniProt P02768); assay: Binding affinity to HSA assessed as Stern-Volmer quenching constant at pH 7.4 at 290 K by fluorescence assay; assay type: ADME; details: isolated protein
[22] = molecular target: T1, Albumin; assay: Binding affinity to HSA assessed as Stern-Volmer quenching constant at pH 7.4 at 300 K by fluorescence assay; assay type: ADME; details: isolated protein
[23] = molecular target: T1, Albumin; assay: Binding affinity to HSA assessed as Stern-Volmer quenching constant at pH 7.4 at 313 K by fluorescence assay; assay type: ADME; details: isolated protein
[24] = molecular target: T1, Albumin; assay: Binding affinity to HSA assessed as biomolecular quenching rate constant at pH 7.4 at 290 K by fluorescence assay; assay type: ADME; details: isolated protein
[25] = molecular target: T1, Albumin; assay: Binding affinity to HSA assessed as biomolecular quenching rate constant at pH 7.4 at 300 K by fluorescence assay; assay type: ADME; details: isolated protein
[26] = molecular target: T1, Albumin; assay: Binding affinity to HSA assessed as biomolecular quenching rate constant at pH 7.4 at 313 K by fluorescence assay; assay type: ADME; details: isolated protein
[27] = molecular target: T1, Albumin; assay: Binding affinity to HSA assessed as modified Stern-Volmer quenching constant at pH 7.4 at 290 K by fluorescence assay; assay type: ADME; details: isolated protein
[28] = molecular target: T1, Albumin; assay: Binding affinity to HSA assessed as modified Stern-Volmer quenching constant at pH 7.4 at 300 K by fluorescence assay; assay type: ADME; details: isolated protein
[29] = molecular target: T1, Albumin; assay: Binding affinity to HSA assessed as modified Stern-Volmer quenching constant at pH 7.4 at 313 K by fluorescence assay; assay type: ADME; details: isolated protein
[30] = molecular target: T1, Albumin; assay: Binding affinity to HSA assessed as equilibrium binding constant at pH 7.4 at 290 K by scatchard assay; assay type: ADME; details: isolated protein
[31] = molecular target: T1, Albumin; assay: Binding affinity to HSA assessed as equilibrium binding constant at pH 7.4 at 300 K by scatchard assay; assay type: ADME; details: isolated protein
[32] = molecular target: T1, Albumin; assay: Binding affinity to HSA assessed as equilibrium binding constant at pH 7.4 at 313 K by scatchard assay; assay type: ADME; details: isolated protein
[33] = test system: Pseudomonas aeruginosa; assay: Potency index, ratio of norfloxacin MIC to compound MIC for Pseudomonas aeruginosa ATCC 27853; assay type: functional
[34] = test system: Candida tropicalis; assay: Potency index, ratio of fluconazole MIC to compound MIC for Candida tropicalis; assay type: functional
[35] = test system: DNA; assay: Binding affinity to sensitive Pseudomonas aeruginosa DNA assessed as hypochromic effect by neutral red dye based UV-vis spectroscopic method; assay type: nucleic-acid assay

T1 sequence (P02768 whole entry): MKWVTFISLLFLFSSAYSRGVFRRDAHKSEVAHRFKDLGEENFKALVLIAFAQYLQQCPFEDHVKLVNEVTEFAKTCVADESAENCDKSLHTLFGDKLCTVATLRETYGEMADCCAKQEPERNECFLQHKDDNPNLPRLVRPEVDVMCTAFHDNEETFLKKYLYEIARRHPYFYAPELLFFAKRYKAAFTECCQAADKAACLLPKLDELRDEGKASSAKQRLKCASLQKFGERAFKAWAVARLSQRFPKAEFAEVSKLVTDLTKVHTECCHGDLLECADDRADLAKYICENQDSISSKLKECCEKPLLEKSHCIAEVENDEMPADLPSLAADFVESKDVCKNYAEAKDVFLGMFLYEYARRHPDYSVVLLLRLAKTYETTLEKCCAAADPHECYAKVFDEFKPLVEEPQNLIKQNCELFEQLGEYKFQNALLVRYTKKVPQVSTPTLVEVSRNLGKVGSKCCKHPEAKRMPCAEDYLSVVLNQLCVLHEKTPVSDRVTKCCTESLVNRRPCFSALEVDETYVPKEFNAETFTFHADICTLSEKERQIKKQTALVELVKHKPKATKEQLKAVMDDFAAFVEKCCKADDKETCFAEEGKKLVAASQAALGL

COc1cc(/C=C(\C(C)O)n2c([N+](=O)[O-])cnc2C)ccc1O (stereo not given)
MIC [1]: 1600 µM (≈ 511 µg/mL)
MIC [2]: 1600 µM (≈ 511 µg/mL)
MIC [3]: 800 µM (≈ 255 µg/mL)
MIC [4]: 800 µM (≈ 255 µg/mL)
MIC [5]: 1600 µM (≈ 511 µg/mL)
MIC [6]: 400 µM (≈ 128 µg/mL)
MIC [7]: 400 µM (≈ 128 µg/mL)
MIC [8]: 100 µM (≈ 31.9 µg/mL)
MIC [9]: 256 µg/mL (≈ 802 µM)
MIC [10]: 32 µg/mL (≈ 100 µM)
MIC [11]: 128 µg/mL (≈ 401 µM)
Activity [12]: 9.3 ×10⁶ CFU/ml
Activity [13]: 3 ×10³ CFU/ml
Activity [14]: 1.5 ×10² CFU/ml
Activity [15]: 87 CFU/ml
Activity [16]: 72 CFU/ml
Activity [17]: 65 CFU/ml
Activity [18]: Active
Activity [19]: Active
Activity [20]: >3.5 log10CFU/ml
KSV [21]: 7.54 ×10⁴ L/mol
KSV [22]: 6.12 ×10⁴ L/mol
KSV [23]: 4.99 ×10⁴ L/mol
Kq [24]: 1.18 ×10¹³ L/mol/s
Kq [25]: 9.56 ×10¹³ L/mol/s
Kq [26]: 7.79 ×10¹³ L/mol/s
KSV [27]: 82200 M⁻¹
KSV [28]: 61800 M⁻¹
KSV [29]: 47400 M⁻¹
Kb [30]: 4.77 ×10⁴ L/mol
Kb [31]: 4.77 ×10⁴ L/mol
Kb [32]: 4.83 ×10⁴ L/mol
Ratio [33]: 4 - 16
Ratio [34]: 4
K [35]: 1.83 ×10⁴ L/mol
